# From US20040058357A1 (priority 2003, published 2004)
# What was measured:
# hippocampal slices = format: cell-based, mice
# AChE [1] = format: cell-based
# PC12 cells = format: cell-based
# AChE-S mRNA = details: rat, in vivo
# AChE [2] = details: rat, in vivo
# AChE [3] = details: rat, in vivo; remark: listed apart in the source
compound,measurement,setting,value
"NC(CCCP(=O)(O)O)C(=O)O (stereo not drawn) [APV, aminophosphonopentanoic acid]",Effect on the evoked pfp,hippocampal slices,blocked
CN1[C@@H]2CC[C@H]1C[C@@H](OC(=O)C(CO)c1ccccc1)C2 (stereo partly drawn) [atropine],Block of the evoked response,hippocampal slices,over 90%
same,Reversal of the physostigmine-induced response,hippocampal slices,70%
C[C@]12C[C@H](O)[C@H]3[C@@H](CCC4=CC(=O)CC[C@@]43C)[C@@H]1CC[C@@H]2C(=O)CO [corticosterone],Increase in acetylthiocholine hydrolytic capacity of AChE,AChE [1],25±14%
same,Increase in labeling intensities of both AChE splice variants versus vehicle-treated cells,PC12 cells,30-50%
CNC(=O)Oc1ccc2c(c1)[C@]1(C)CCN(C)[C@@H]1N2C [physostigmine],"Increase in amplitude of evoked population spikes, mean",hippocampal slices,42±15%
same,"Increase in amplitude of evoked population spikes, range",hippocampal slices,20-80%
same,Increase over baseline in population spike amplitudes relative to non-stressed animals,hippocampal slices,12 fold
CN1CCN(CC(=O)N2c3ccccc3C(=O)Nc3cccnc32)CC1 [pirenzepine],AChE-S elevation by vehicle injection-induced stress under muscarinic blocker,AChE-S mRNA,39.1±5.2 AFU
same,"AChE-S mRNA labeling, change in words",AChE-S mRNA,somewhat lower increase
same,DFP-induced AChE-S expression,AChE-S mRNA,30.4±4.9 AFU
same,Effect on AChE-S or -R levels after 24 hours,AChE-S mRNA,did not show any effect
same,DFP-induced increase of G1:G4 ratio under co-injection,AChE [2],prevented
same,Cortical DFP-induced decrease in AChE activity under pirenzepine pre-treatment,AChE [3],44 % of control
same,Hippocampal regaining of AChE activity after DFP under pirenzepine pre-treatment,AChE [3],63 % of control
CN1[C@@H]2C[C@@H](OC(=O)[C@H](CO)c3ccccc3)C[C@H]1[C@@H]1O[C@@H]12 [scopolamine],AChE-S elevation by vehicle injection-induced stress under muscarinic blocker,AChE-S mRNA,39.6±3.3 AFU
same,"AChE-S mRNA labeling, change in words",AChE-S mRNA,conspicuous increases
same,DFP-induced AChE-S expression,AChE-S mRNA,35.1±10 AFU
same,Effect on AChE-S or -R levels after 24 hours,AChE-S mRNA,did not show any effect
same,DFP-induced increase of G1:G4 ratio under co-injection,AChE [2],prevented
same,Effect on the DFP-induced decrease in AChE activities,AChE [3],no significant effect
